Measurements: ChEMBL document CHEMBL3046483, “Novel 2'-hydroxylfurylchalcones: synthesis and biological activity” (2010)
Active and inactive are the calls of the source. No cut-off for these calls is given here.

Legend:
[1] = test system: Brassica rapa subsp. oleifera; assay: Herbicidal activity against Brassica rapa subsp. oleifera assessed as inhibitory rate of seedling height at 7.5 g/hm'2 relative to control; type: functional
[2] = test system: Amaranthus tricolor; assay: Herbicidal activity against Amaranthus tricolor assessed as inhibitory rate of seedling height at 7.5 g/hm'2 relative to control; type: functional
[3] = test system: Cucumis sativus; assay: Herbicidal activity against Cucumis sativus (cucumber) assessed as inhibitory rate of fresh weight gain at 7.5 g/hm'2 relative to control; type: functional
[4] = test system: Pyricularia grisea; assay: Antifungal activity against Magnaporthe grisea assessed as rice blast control measured after 1 day; type: functional, organism-based
[5] = test system: Amaranthus tricolor; assay: Herbicidal activity against Amaranthus tricolor assessed as inhibitory rate of fresh weight gain at 7.5 g/hm'2 relative to control; type: functional
[6] = test system: Golovinomyces cichoracearum; assay: Antifungal activity against Golovinomyces cichoracearum assessed as cucumber powdery mildew control measured after 1 day; type: functional; parameters: concentration or dose not given beside the values
[7] = test system: Pseudoperonospora cubensis; assay: Antifungal activity against Pseudoperonospora cubensis assessed as cucumber downy mildew control measured after 1 day; type: functional, organism-based
[8] = test system: Dinebra chinensis; assay: Herbicidal activity against Dinebra chinensis assessed as inhibitory rate of seedling height at 7.5 g/hm'2 relative to control; type: functional
[9] = test system: Brassica rapa subsp. oleifera; assay: Herbicidal activity against Brassica rapa subsp. oleifera assessed as inhibitory rate of fresh weight gain at 7.5 g/hm'2 relative to control; type: functional
[10] = test system: Dinebra chinensis; assay: Herbicidal activity against Dinebra chinensis assessed as inhibitory rate of fresh weight gain at 7.5 g/hm'2 relative to control; type: functional
[11] = test system: Botrytis cinerea; assay: Antifungal activity against Botryotinia fuckeliana assessed as cucumber grey mould control measured after 1 day; type: functional, organism-based
[12] = test system: Triticum aestivum; assay: Herbicidal activity against Triticum aestivum (wheat) assessed as inhibitory rate of fresh weight gain at 7.5 g/hm'2 relative to control; type: functional
[13] = test system: Cucumis sativus; assay: Herbicidal activity against Cucumis sativus (cucumber) assessed as inhibitory rate of seedling height at 7.5 g/hm'2 relative to control; type: functional
[14] = test system: Sorghum bicolor; assay: Herbicidal activity against Sorghum bicolor assessed as inhibitory rate of fresh weight gain at 7.5 g/hm'2 relative to control; type: functional
[15] = test system: Sorghum bicolor; assay: Herbicidal activity against Sorghum bicolor assessed as inhibitory rate of seedling height at 7.5 g/hm'2 relative to control; type: functional
[16] = test system: Triticum aestivum; assay: Herbicidal activity against Triticum aestivum (wheat) assessed as inhibitory rate of seedling height at 7.5 g/hm'2 relative to control; type: functional

Row | Compound | inhibition (INH) [1] [%] | inhibition (INH) [2] [%] | inhibition (INH) [3] [%] | Activity [4] | inhibition (INH) [5] [%] | Activity [6] [%] | Activity [7] | inhibition (INH) [8] [%] | inhibition (INH) [9] [%] | inhibition (INH) [10] [%] | Activity [11] | inhibition (INH) [12] [%] | inhibition (INH) [13] [%] | inhibition (INH) [14] [%] | inhibition (INH) [15] [%] | inhibition (INH) [16] [%]
1 | Cc1ccc(/C=C/C(=O)c2occc2O)cc1 | 33.3 | 12.5 | 39.3 | inactive | 72.2 | <10 | inactive | -10.1 | 45.9 | 47.8 | inactive | 53 | 32.7 | 32.3 | -3.8 | 28.1
2 | N#Cc1cccc(/C=C/C(=O)c2occc2O)c1 | 14.3 | 37.5 | 13.7 | inactive | 31.7 | <10 | inactive | -12.3 | -5.9 | 12.4 | inactive | 36.1 | 33.3 | 24 | 34 | 30.5
3 | O=C(/C=C/c1ccccn1)c1occc1O | 52.4 | 18.8 | 33.1 | inactive | 23.9 | <10 | inactive | 6.7 | 31.8 | 37.4 | inactive | 40.9 | 31 | 11.3 | 13.6 | 37
